Assay results: ChEMBL document CHEMBL4649986, “Chemical probes and inhibitors of bromodomains outside the BET family” (Medchemcomm, 2016)

What was measured:
[1] = target: Histone-lysine N-methyltransferase ASH1L (Homo sapiens) (UniProt Q9NR48); settings: Compound concentration 10.0 uM, Protein concentration 2.0 uM
Peregrin (Homo sapiens) [2] = target: Peregrin (Homo sapiens) (UniProt P55201); settings: Compound concentration 10.0 uM, Protein concentration 2.0 uM
[3] = target: Protein polybromo-1 (Homo sapiens) (UniProt Q86U86); settings: Compound concentration 10.0 uM, Protein concentration 2.0 uM
[4] = target: Bromodomain adjacent to zinc finger domain protein 2B (Homo sapiens) (UniProt Q9UIF8); settings: Compound concentration 10.0 uM, Protein concentration 2.0 uM
[5] = target: Bromodomain-containing protein 3 (Homo sapiens) (UniProt Q15059); settings: Compound concentration 10.0 uM, Protein concentration 2.0 uM
[6] = target: Bromodomain adjacent to zinc finger domain protein 1A (Homo sapiens) (UniProt Q9NRL2); settings: Compound concentration 10.0 uM, Protein concentration 2.0 uM
[7] = target: Histone acetyltransferase p300 (Homo sapiens) (UniProt Q09472); settings: Compound concentration 10.0 uM, Protein concentration 2.0 uM
[8] = target: Nuclear body protein SP140-like protein (Homo sapiens) (UniProt Q9H930); settings: Compound concentration 10.0 uM, Protein concentration 2.0 uM
[9] = target: Protein polybromo-1 (Homo sapiens) (UniProt Q86U86); settings: Compound concentration 10.0 uM, Protein concentration 2.0 uM; remark: listed apart in the source
[10] = target: Bromodomain-containing protein 1 (Homo sapiens) (UniProt O95696); settings: Compound concentration 10.0 uM, Protein concentration 2.0 uM
Peregrin = Peregrin (Homo sapiens, UniProt P55201); assay: Alphascreen assay. Binding to BRPF1B (domain start/stop: M626-G740) by alphascreen assay
[11] = target: Bromodomain testis-specific protein (Homo sapiens) (UniProt Q58F21); settings: Compound concentration 10.0 uM, Protein concentration 2.0 uM
[12] = target: SWI/SNF-related matrix-associated actin-dependent regulator of chromatin subfamily A member 2 (Homo sapiens) (UniProt P51531); settings: Compound concentration 10.0 uM, Protein concentration 2.0 uM
[13] = target: ATPase family AAA domain-containing protein 2B (Homo sapiens) (UniProt Q9ULI0); settings: Compound concentration 10.0 uM, Protein concentration 2.0 uM
[14] = target: Bromodomain and WD repeat-containing protein 1 (Homo sapiens) (UniProt Q9NSI6); settings: Compound concentration 10.0 uM, Protein concentration 2.0 uM
[15] = target: T1, Chromatin remodeling regulator CECR2 (Homo sapiens, UniProt Q9BXF3); assay: Alphascreen assay. Binding to CECR2A (domain start/stop: P420-H538) by alphascreen assay
[16] = target: Nuclear body protein SP140 (Homo sapiens) (UniProt Q13342); settings: Compound concentration 10.0 uM, Protein concentration 2.0 uM
[17] = target: Transcription initiation factor TFIID subunit 1-like (Homo sapiens) (UniProt Q8IZX4); settings: Compound concentration 10.0 uM, Protein concentration 2.0 uM
[18] = target: Bromodomain-containing protein 9 (Homo sapiens) (UniProt Q9H8M2); settings: Compound concentration 10.0 uM, Protein concentration 2.0 uM
[19] = target: PH-interacting protein (Homo sapiens) (UniProt Q8WWQ0); settings: Compound concentration 10.0 uM, Protein concentration 2.0 uM
[20] = target: Transcription initiation factor TFIID subunit 1-like (Homo sapiens) (UniProt Q8IZX4); settings: Compound concentration 10.0 uM, Protein concentration 2.0 uM; remark: listed apart in the source
[21] = target: Bromodomain-containing protein 3 (Homo sapiens) (UniProt Q15059); settings: Compound concentration 10.0 uM, Protein concentration 2.0 uM; remark: listed apart in the source
[22] = target: Bromodomain and WD repeat-containing protein 3 (Homo sapiens) (UniProt Q6RI45); settings: Compound concentration 10.0 uM, Protein concentration 2.0 uM
[23] = target: Transcription initiation factor TFIID subunit 1 (Homo sapiens) (UniProt P21675); settings: Compound concentration 10.0 uM, Protein concentration 2.0 uM
[24] = target: Bromodomain-containing protein 7 (Homo sapiens) (UniProt Q9NPI1); settings: Compound concentration 10.0 uM, Protein concentration 2.0 uM
[25] = target: Protein polybromo-1 (Homo sapiens) (UniProt Q86U86); settings: Compound concentration 10.0 uM, Protein concentration 2.0 uM; remark: listed apart in the source
[26] = target: T2, Nucleosome-remodeling factor subunit BPTF (Homo sapiens, UniProt Q12830); settings: Compound concentration 10.0 uM, Protein concentration 2.0 uM
[27] = target: Bromodomain adjacent to zinc finger domain protein 2A (Homo sapiens) (UniProt Q9UIF9); settings: Compound concentration 10.0 uM, Protein concentration 2.0 uM
[28] = target: SWI/SNF-related matrix-associated actin-dependent regulator of chromatin subfamily A member 4 (Homo sapiens) (UniProt P51532); settings: Compound concentration 10.0 uM, Protein concentration 2.0 uM
[29] = target: Bromodomain-containing protein 2 (Homo sapiens) (UniProt P25440); settings: Compound concentration 10.0 uM, Protein concentration 2.0 uM
Peregrin (Homo sapiens) [30] = target: Peregrin (Homo sapiens) (UniProt P55201); settings: Compound concentration 10.0 uM, Protein concentration 2.0 uM; remark: listed apart in the source
[31] = target: T1, Chromatin remodeling regulator CECR2; settings: Compound concentration 10.0 uM, Protein concentration 2.0 uM
[32] = target: T1, Chromatin remodeling regulator CECR2; assay: Alphascreen assay. Binding to CECR2A (domain start/stop: P420-D543) by alphascreen assay
[33] = target: Protein polybromo-1 (Homo sapiens) (UniProt Q86U86); settings: Compound concentration 10.0 uM, Protein concentration 2.0 uM; remark: listed apart in the source
[34] = target: Tyrosine-protein kinase BAZ1B (Homo sapiens) (UniProt Q9UIG0); settings: Compound concentration 10.0 uM, Protein concentration 2.0 uM
[35] = target: Histone acetyltransferase KAT2A (Homo sapiens) (UniProt Q92830); settings: Compound concentration 10.0 uM, Protein concentration 2.0 uM
[36] = target: Transcription intermediary factor 1-alpha (Homo sapiens) (UniProt O15164); settings: Compound concentration 10.0 uM, Protein concentration 2.0 uM
[37] = target: Transcription initiation factor TFIID subunit 1 (Homo sapiens) (UniProt P21675); settings: Compound concentration 10.0 uM, Protein concentration 2.0 uM; remark: listed apart in the source
[38] = target: Transcription intermediary factor 1-beta (Homo sapiens) (UniProt Q13263); settings: Compound concentration 10.0 uM, Protein concentration 2.0 uM
[39] = target: T2, Nucleosome-remodeling factor subunit BPTF; assay: Alphascreen assay. Binding to FALZA (domain start/stop: S2791-H2911) by alphascreen assay
[40] = target: Bromodomain-containing protein 2 (Homo sapiens) (UniProt P25440); settings: Compound concentration 10.0 uM, Protein concentration 2.0 uM; remark: listed apart in the source
[41] = target: Bromodomain testis-specific protein (Homo sapiens) (UniProt Q58F21); settings: Compound concentration 10.0 uM, Protein concentration 2.0 uM; remark: listed apart in the source
[42] = target: Bromodomain-containing protein 4 (Homo sapiens) (UniProt O60885); settings: Compound concentration 10.0 uM, Protein concentration 2.0 uM
[43] = target: Bromodomain and PHD finger-containing protein 3 (Homo sapiens) (UniProt Q9ULD4); settings: Compound concentration 10.0 uM, Protein concentration 2.0 uM
[44] = target: Protein polybromo-1 (Homo sapiens) (UniProt Q86U86); settings: Compound concentration 10.0 uM, Protein concentration 2.0 uM; remark: listed apart in the source
[45] = target: ATPase family AAA domain-containing protein 2 (Homo sapiens) (UniProt Q6PL18); settings: Compound concentration 10.0 uM, Protein concentration 2.0 uM
[46] = target: Histone acetyltransferase KAT2B (Homo sapiens) (UniProt Q92831); settings: Compound concentration 10.0 uM, Protein concentration 2.0 uM
[47] = target: Protein polybromo-1 (Homo sapiens) (UniProt Q86U86); settings: Compound concentration 10.0 uM, Protein concentration 2.0 uM; remark: listed apart in the source
[48] = target: Histone-lysine N-methyltransferase 2A (Homo sapiens) (UniProt Q03164); settings: Compound concentration 10.0 uM, Protein concentration 2.0 uM
[49] = target: CREB-binding protein (Homo sapiens) (UniProt Q92793); settings: Compound concentration 10.0 uM, Protein concentration 2.0 uM

Chain of Protein polybromo-1 (Homo sapiens) (Q86U86 whole entry, the tested form may be a part): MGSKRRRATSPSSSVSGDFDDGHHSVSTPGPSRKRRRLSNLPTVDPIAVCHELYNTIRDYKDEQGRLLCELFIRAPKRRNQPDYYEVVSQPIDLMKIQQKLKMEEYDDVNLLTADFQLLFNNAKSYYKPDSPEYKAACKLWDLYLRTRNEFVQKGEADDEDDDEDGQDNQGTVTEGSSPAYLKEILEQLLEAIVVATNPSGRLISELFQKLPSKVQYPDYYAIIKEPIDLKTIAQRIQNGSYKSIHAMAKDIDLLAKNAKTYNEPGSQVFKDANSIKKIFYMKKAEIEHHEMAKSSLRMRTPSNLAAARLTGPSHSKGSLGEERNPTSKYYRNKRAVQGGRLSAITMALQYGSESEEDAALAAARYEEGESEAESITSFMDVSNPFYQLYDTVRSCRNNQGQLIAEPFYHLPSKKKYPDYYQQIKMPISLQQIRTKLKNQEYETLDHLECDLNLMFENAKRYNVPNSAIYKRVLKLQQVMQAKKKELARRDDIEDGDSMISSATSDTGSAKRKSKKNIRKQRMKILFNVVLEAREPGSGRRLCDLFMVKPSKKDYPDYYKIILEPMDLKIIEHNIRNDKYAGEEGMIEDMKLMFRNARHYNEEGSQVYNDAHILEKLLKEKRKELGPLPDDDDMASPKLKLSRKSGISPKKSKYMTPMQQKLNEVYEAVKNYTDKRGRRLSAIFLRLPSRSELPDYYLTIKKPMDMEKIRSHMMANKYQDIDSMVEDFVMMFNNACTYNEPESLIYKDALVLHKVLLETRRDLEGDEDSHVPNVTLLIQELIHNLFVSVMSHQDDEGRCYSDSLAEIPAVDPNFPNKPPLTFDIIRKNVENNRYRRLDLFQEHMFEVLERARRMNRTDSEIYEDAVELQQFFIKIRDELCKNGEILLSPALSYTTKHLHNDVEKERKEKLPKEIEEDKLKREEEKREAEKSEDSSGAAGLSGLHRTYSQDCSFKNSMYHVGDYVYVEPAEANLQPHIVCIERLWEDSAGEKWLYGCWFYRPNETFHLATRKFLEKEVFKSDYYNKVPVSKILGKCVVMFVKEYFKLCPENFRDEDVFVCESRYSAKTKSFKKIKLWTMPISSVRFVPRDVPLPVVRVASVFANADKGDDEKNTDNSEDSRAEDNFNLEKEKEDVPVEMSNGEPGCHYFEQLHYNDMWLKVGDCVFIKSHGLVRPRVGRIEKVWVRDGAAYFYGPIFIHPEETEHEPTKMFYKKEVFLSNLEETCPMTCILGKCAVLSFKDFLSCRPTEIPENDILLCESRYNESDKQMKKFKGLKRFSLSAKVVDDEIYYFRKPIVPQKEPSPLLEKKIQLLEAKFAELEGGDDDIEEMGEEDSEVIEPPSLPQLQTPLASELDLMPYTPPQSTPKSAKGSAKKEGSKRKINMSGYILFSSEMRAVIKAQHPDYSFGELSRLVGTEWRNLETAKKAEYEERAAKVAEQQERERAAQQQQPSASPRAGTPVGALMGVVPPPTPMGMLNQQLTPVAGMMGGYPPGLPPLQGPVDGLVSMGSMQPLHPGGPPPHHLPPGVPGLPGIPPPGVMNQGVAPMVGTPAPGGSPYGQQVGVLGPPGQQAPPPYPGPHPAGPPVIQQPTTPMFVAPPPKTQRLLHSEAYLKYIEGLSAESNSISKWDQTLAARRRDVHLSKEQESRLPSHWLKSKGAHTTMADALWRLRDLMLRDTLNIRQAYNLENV
Chain of Transcription initiation factor TFIID subunit 1 (Homo sapiens) (P21675 whole entry): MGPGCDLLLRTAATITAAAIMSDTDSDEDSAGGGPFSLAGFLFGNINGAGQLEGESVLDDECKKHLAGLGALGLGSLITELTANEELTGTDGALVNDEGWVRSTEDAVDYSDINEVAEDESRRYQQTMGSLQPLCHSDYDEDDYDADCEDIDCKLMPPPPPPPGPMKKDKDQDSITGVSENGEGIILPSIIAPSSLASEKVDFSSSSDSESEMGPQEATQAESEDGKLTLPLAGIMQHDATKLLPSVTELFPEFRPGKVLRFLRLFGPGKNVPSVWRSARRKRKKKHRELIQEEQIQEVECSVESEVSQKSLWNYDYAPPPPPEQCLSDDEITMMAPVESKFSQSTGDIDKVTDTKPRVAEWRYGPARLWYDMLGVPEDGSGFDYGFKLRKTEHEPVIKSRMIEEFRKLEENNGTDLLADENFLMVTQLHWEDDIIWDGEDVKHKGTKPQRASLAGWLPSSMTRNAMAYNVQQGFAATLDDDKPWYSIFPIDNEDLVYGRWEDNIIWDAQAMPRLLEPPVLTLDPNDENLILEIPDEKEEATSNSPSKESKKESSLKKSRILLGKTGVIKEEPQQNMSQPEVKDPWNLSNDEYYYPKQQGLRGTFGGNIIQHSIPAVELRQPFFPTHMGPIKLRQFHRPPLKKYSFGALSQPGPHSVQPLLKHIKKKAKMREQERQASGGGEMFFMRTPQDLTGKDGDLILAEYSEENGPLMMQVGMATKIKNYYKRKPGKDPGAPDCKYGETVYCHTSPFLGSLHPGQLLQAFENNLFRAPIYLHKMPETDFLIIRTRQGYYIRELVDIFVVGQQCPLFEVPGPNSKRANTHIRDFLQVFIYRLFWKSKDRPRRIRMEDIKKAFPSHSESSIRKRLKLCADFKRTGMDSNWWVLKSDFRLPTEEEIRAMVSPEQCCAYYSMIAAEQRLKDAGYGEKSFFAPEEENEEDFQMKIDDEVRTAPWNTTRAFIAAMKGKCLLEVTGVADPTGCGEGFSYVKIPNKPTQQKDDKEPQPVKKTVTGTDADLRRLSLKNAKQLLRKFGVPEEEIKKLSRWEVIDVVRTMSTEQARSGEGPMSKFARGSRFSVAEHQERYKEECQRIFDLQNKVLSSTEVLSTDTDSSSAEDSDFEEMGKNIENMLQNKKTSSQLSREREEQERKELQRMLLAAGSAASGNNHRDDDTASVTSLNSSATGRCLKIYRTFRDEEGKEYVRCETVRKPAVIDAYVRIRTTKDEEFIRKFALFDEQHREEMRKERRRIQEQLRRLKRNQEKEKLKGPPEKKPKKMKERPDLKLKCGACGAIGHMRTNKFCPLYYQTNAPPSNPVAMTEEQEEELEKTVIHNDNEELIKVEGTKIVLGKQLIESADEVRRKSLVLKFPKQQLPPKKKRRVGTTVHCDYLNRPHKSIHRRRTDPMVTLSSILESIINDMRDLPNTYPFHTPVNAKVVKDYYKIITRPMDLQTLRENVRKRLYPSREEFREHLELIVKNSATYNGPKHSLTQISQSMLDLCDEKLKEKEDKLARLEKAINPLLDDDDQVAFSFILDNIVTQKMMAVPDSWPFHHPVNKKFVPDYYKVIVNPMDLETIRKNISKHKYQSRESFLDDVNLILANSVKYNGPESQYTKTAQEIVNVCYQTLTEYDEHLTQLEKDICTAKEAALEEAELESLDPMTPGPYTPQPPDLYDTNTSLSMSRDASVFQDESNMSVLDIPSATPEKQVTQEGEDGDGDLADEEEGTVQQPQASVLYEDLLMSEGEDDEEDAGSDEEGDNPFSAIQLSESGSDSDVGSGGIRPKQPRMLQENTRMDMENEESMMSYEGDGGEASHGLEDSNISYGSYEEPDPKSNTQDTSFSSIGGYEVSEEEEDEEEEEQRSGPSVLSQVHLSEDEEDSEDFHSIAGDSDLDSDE
Chain of Peregrin (Homo sapiens) (P55201 whole entry): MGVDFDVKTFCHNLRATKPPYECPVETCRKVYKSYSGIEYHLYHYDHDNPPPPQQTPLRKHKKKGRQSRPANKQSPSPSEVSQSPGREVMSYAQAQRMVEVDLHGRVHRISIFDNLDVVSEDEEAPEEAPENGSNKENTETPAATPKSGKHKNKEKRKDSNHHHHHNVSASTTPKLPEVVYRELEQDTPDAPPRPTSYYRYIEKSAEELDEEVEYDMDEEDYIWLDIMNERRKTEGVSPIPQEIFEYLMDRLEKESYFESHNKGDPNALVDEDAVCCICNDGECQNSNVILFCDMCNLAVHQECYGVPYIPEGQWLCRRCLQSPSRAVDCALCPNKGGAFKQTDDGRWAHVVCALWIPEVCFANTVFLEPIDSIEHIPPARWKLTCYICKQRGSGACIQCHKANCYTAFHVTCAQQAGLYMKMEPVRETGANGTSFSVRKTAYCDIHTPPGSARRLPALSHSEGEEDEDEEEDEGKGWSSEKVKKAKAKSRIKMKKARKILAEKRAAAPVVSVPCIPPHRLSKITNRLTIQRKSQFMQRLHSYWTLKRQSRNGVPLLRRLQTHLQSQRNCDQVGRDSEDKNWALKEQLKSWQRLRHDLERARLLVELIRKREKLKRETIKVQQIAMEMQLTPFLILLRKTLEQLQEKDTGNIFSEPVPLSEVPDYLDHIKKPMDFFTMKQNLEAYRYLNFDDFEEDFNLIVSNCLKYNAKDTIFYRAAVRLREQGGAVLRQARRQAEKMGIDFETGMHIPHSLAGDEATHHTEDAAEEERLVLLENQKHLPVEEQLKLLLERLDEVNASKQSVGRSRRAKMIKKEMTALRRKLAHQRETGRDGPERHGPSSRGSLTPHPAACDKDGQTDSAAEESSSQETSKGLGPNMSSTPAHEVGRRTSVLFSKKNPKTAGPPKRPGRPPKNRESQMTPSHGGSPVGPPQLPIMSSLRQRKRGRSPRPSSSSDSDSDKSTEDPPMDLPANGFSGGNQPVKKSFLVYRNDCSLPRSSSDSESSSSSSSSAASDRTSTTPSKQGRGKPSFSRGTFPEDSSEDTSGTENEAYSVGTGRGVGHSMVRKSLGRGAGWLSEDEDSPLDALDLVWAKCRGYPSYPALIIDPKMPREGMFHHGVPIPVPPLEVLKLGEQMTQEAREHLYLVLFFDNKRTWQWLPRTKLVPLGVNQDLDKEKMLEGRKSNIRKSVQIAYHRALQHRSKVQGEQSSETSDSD
Chain of Peregrin (P55201 whole entry): as above

CCCS(=O)(=O)c1nc(NC2CC2)cc(-c2ccc3c(ccn3C3CC(C)(C)NC(C)(C)C3)c2)n1
ΔTm [1]: 0.48 °C
ΔTm (Peregrin (Homo sapiens) [2]): 0.38 °C
ΔTm [3]: 0.34 °C
ΔTm [4]: 0.4 °C
ΔTm [5]: 0.37 °C
ΔTm [6]: -0.77 °C
ΔTm [7]: 0.85 °C
ΔTm [8]: 0.62 °C
ΔTm [9]: 0.51 °C
ΔTm [10]: 0.34 °C
IC50 (Peregrin): 4400 nM
ΔTm [11]: -0.15 °C
ΔTm [12]: 0.87 °C
ΔTm [13]: 0.82 °C
ΔTm [14]: 1.71 °C
IC50 [15]: 19.3 nM
ΔTm [16]: 0.58 °C
ΔTm [17]: 1.56 °C
ΔTm [18]: 0.96 °C
ΔTm [19]: -0.17 °C
ΔTm [20]: 0.73 °C
ΔTm [21]: 0.35 °C
ΔTm [22]: -0.86 °C
ΔTm [23]: 1.25 °C
ΔTm [24]: 1.3 °C
ΔTm [25]: 0.63 °C
ΔTm [26]: 1.67 °C
ΔTm [27]: 0.14 °C
ΔTm [28]: 1.26 °C
ΔTm [29]: 0.39 °C
ΔTm (Peregrin (Homo sapiens) [30]): 0.16 °C
ΔTm [31]: 12.6 °C
IC50 [32]: 37.5 nM
ΔTm [33]: -0.21 °C
ΔTm [34]: -0.35 °C
ΔTm [35]: 1.2 °C
ΔTm [36]: 1.38 °C
ΔTm [37]: 1.09 °C
ΔTm [38]: 1.37 °C
IC50 [39]: 1460 nM
ΔTm [40]: 0.54 °C
ΔTm [41]: 0.51 °C
ΔTm [42]: 1.85 °C
ΔTm [43]: 0.48 °C
ΔTm [44]: 0.88 °C
ΔTm [45]: 1.07 °C
ΔTm [46]: 0.62 °C
ΔTm [47]: 0.48 °C
ΔTm [48]: 0.08 °C
ΔTm [49]: 0.36 °C
